Entries after “also recorded” stand apart in the source; their conditions may differ.
Experiments:
[1] = system: colon cancer xenograft with RAS/RAF activation albeit with PIK3CA mutation; settings: alone; xenograft with RAS/RAF activation and PIK3CA mutation; cited from earlier work
[2] = phase I clinical trial (Saura et al., 2017); cited from earlier work
PC-3 cells [3] = experiment: Colony formation (Crystal Violet) in PC-3 cells; assay type: cell-based, human; settings: 0.1-10 μM for 2 weeks (FIG. 8)
Method: (§1) PC-3, MDA-MB-468, HCC1143, and MDA-MB-231 cells were treated with DMSO, AZD5363 or XF050-21 at 0.1 μM, 0.3 μM, 1 μM, 3 μM, or 10 μM for 2 weeks.
(§2) Cells were cultured for 12-17 days in the presence of different compounds. Media with compound was replenished every two days. At the end of the experiment, media was aspirated and viable cells were stained with 0.5% crystal violet dye.

MDA-MB-468 cells [4] = experiment: Cell proliferation (IncuCyte live cell imaging) in MDA-MB-468 cells; assay type: cell-based; settings: MDA-MB-468 cells (FIG. 7)
Method: (§3) 1-3×10^3 PC-3 or MDA-MB-468 cells were seeded in 96-well plates in triplicates and treated at the indicated compound concentrations. Cells were monitored using the IncuCyte® live cell imaging system (Essen Bioscience™, Ann Arbor, Mich.) which was placed in a cell culture incubator operated at 37° C. and 5% CO2. Cell confluence was determined using calculations derived from phase-contrast images. The concentration for 50% of maximal inhibition of cell proliferation (GI50) values were determined by fitting to a standard four-parameter logistic using GraphPad Prism® v5.
(§4) Experiments were carried out in 96-well plates in triplicates. A total of 1-3×10^3 cells per well were grown in the presence of 1 μM of AZD5363 (Selleckchem), 1 μM of selected degrader compounds. Cells were then monitored for 3-4 days using the IncuCyte live cell imaging system (Essen BioScience, Ann Arbor, Mich., USA), which was placed in a cell culture incubator operated at 37° C. and 5% CO2. Cell confluence was determined using calculations derived from phase-contrast images. For measurement of cell death DRAQ7 (Cell Signaling #7406) at 1.5 μM was included in the medium and apoptotic red counts were measured in IncuCyte™ FLR automated incubator microscope.

AKT [5] = experiment: Rescue of XF050-21 induced AKT degradation by pretreatment in BT474 cells; assay type: cell-based, human
Method: BT474 Cells were pre-treated with DMSO, VHL-1 (1 mM), MLN4924 (1 μM), MG-132 (20 μM) or AZD5363 (1 μM) for 2 h, before being treated with the 1 μM XF050-21 compounds for 24 h.
(§5) Cells were lysed in 2× sample buffer (125 mM Tris-HCl at pH 6.8, 10% βME, 2% SDS, 20% glycerol, 0.05% Bromophenol Blue, 8 M urea). Protein lysates were loaded into 4-12% Bis-Tris gels and resolved by electrophoresis. Samples were then blotted on PVDF membrane (Millipore IPVH00010) using the wet transfer technique (Invitrogen). Membranes were blocked in 5% milk-TBST for 1 hour, washed in TBST for 10 min, and incubated in primary antibody in 5% milk-TBST or 5% BSA-TBST at 4° C. for 16 h. Membranes were rinsed (3×6 min) in TBST and incubated in horseradish peroxidase-conjugated secondary antibodies in 5% milk-TBST for 1 hour and rinsed again in TBST (3×6 min). Membranes were visualized using the chemiluminescence system (Thermo 34080, 37075) on autoradiography film (Denville E3018). Primary Antibodies: R-actin (Sigma A5316), p-AKT (Ser473 CST-9721), total AKT (CST-9272), p-S6 (Ser240/244, CST-5364), p-PRAS40 (Thr246, CST-2997). Secondary Antibodies: Mouse (Thermo 31432), Rabbit (Thermo 31460).

AKT [6] = experiment: Western blot of AKT protein levels and downstream signaling in BT474 cells; assay type: cell-based, human; settings: Western blot (FIGS. 1, 3, 4)
In short: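 Lysates were immunoblotted with chemiluminescent detection for p-AKT Ser473, total AKT, p-S6 Ser240/244 and p-PRAS40 Thr246, using actin as loading control.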

AKT [7] = experiment: Time course Western blot of AKT degradation in PC-3 cells; assay type: cell-based, human; settings: PC3 cells, 1 μM
Method: BT474 cells and PC-3 cells were treated with DMSO or the indicated compounds at a fixed concentration of 1 μM for 1, 2, 4, 8, 12, or 24 h. […] The maximum degradation of AKT and inhibition of downstream signaling were observed after 12 h of treatment in PC-3 cells (FIG. 5B).
as §5

AKT [8] = experiment: Western blot of AKT protein levels in MDA-MB-468 cells; assay type: cell-based; settings: 0.3 μM, 1 μM, 3 μM, or 10 μM for 24 h
Method: as §5

AKT [9] = experiment: Western blot of AKT protein levels in U87MG cells; assay type: cell-based; settings: 0.3 μM, 1 μM, 3 μM, or 10 μM for 24 h
Method: as §5

AKT [10] = experiment: Time course Western blot of AKT degradation in BT474 cells; assay type: cell-based, human
Method: as §5

HCC1143 cells = experiment: Colony formation (Crystal Violet) in HCC1143 cells; assay type: cell-based; settings: 0.1-10 μM for 2 weeks (FIG. 8)
Method: as §1, §2

MDA-MB-468 cells [11] = experiment: Colony formation (Crystal Violet) in MDA-MB-468 cells; assay type: cell-based; settings: 0.1-10 μM for 2 weeks (FIG. 8)
Method: as §1, §2

MDA-MB-231 cells = experiment: Colony formation (Crystal Violet) in MDA-MB-231 cells; assay type: cell-based; settings: 0.1-10 μM for 2 weeks (FIG. 8)
Method: as §1, §2

AKT [12] = experiment: Western blot of AKT protein levels in PC-3 cells; assay type: cell-based, human; settings: 0.3 μM, 1 μM, 3 μM, or 10 μM for 24 h (FIG. 4B)
Method: PC-3, U87MG, HCC1143, MDA-MB-231, MDA-MB-468, BT474 and MCF-7 cell lines were purchased from ATCC. Cell lines were regularly tested in the lab for mycoplasma. All cells were cultured at 37° C. and 5% CO2. PC-3, U87MG, MDA-MB-231, MCF-7 and BT474 cells were cultured in 1×DMEM (Corning, 10-013-CV) with 10% fetal bovine serum (Atlanta Biologicals S11150) and 1× Penicillin/Streptomycin. HCC1143 cells were cultured in RPMI (Corning, 10-040-CV) medium with 10% fetal bovine serum (Atlanta Biologicals S11150) and 1× Penicillin/Streptomycin. Cells were split using 0.05% or 0.25% trypsin (Corning 25-051-Cl or 25-053-Cl, respectively) before they reached full confluence and media was changed every 3-4 days. Cells were treated with compounds individually at different concentrations for 24 hrs. Cells were treated with DMSO, VHL, or PML alone as controls.
as §5

AKT [13] = experiment: Combination of AKT degrader and mTOR inhibitor, Western blot in BT474 cells; assay type: cell-based, human; settings: 24 h, combined with an mTOR inhibitor (Torin1 or Rapamycin)
Method: as §5

[14] = Mouse PK study, plasma exposure; assay type: in vivo, Swiss Albino mice
Method: Standard PK studies were conducted using male Swiss Albino mice. A single 75 mg/kg intraperitoneal (IP) injection of XF050-21 was evaluated. Plasma concentrations of XF050-21 reported at each of the six time points (30 min, 1 h, 2 h, 4 h, 8 h, and 12 h post dosing) are the average values from 3 test animals.

PC-3 cells [15] = experiment: Cell proliferation (IncuCyte live cell imaging) in PC-3 cells; assay type: cell-based, human; settings: PC-3 cells (FIG. 7)
Method: as §3, §4

SMILES	efficacy in colon cancer xenograft [1]	objective tumor shrinkage [2]	colony formation inhibition compared with AZD5363 (PC-3 cells [3])	cell proliferation inhibition compared with AZD5363 (MDA-MB-468 cells [4])	mechanism of induced AKT protein degradation (AKT [5])	rescue of AKT degradation by pretreatment (AKT [5]; 2 h pretreatment with VHL-1, MLN4924, MG-132 or AZD5363, then 1 μM XF050-21 for 24 h)	suppression of AKT protein level and AKT activity (AKT [6])	time-dependent reduction of AKT, p-AKT, P-PRAS40 (T246), and P-S6 (S240/244) protein levels (AKT [7])	AKT protein levels (AKT [8])	AKT protein levels (AKT [9])	time point for the most significant AKT degradation (AKT [10]; BT474 cells (FIGS. 2 and 5)) [h]	time-dependent reduction of AKT, p-AKT, P-PRAS40 (T246), and P-S6 (S240/244) protein levels (AKT [10]; BT474 cells, 1 μM)	colony formation inhibition compared with AZD5363 (HCC1143 cells)	colony formation inhibition compared with AZD5363 (MDA-MB-468 cells [11])	colony formation inhibition compared with AZD5363 (MDA-MB-231 cells)	AKT protein levels (AKT [12])	AKT protein levels and downstream signaling under combination treatment (AKT [13])	clinical observations during PK study ([14]; male Swiss Albino mice, single 75 mg/kg IP)	bioavailability in mice ([14]; single 75 mg/kg IP injection, plasma)	cell proliferation inhibition compared with AZD5363 (PC-3 cells [15])
CC(C)NC[C@@H](C(=O)N1CCN(c2ncnc3c2[C@H](C)C[C@H]3O)CC1)c1ccc(Cl)cc1 [GDC0068]	not very effective	failed to result in significant objective tumor shrinkage	–	–	–	–	–	–	–	–	–	–	–	–	–	–	–	–	–	–
Cc1ncsc1-c1ccc(CNC(=O)[C@@H]2C[C@@H](O)CN2C(=O)[C@@H](NC(=O)CCCCCCCCCC(=O)N2CCN(CC[C@H](NC(=O)C3(N)CCN(c4ncnc5[nH]ccc45)CC3)c3ccc(Cl)cc3)CC2)C(C)(C)C)cc1 [XF050-21, 4-amino-N-((S)-1-(4-chlorophenyl)-3-(4-(11-(((S)-1-((2S,4R)-4-hydroxy-2-((4-(4-methylthiazol-5-yl)benzyl)carbamoyl)pyrrolidin-1-yl)-3,3-dimethyl-1-oxobutan-2-yl)amino)-11-oxoundecanoyl)piperazin-1-yl)propyl)-1-(7H-pyrrolo[2,3-d]pyrimidin-4-yl)piperidine-4-carboxamide]	–	–	more effective in inhibiting cancer cell proliferation than AZD5363; also recorded: better colony formation inhibition than AZD5363	more effective than AZD5363; also recorded: better cell proliferation inhibition activity than AZD5363	mediated by hijacking the E3 ubiquitin ligase VHL	can be rescued by VHL-1, MLN4924, MG-132 or AZD5363 pretreatment; also recorded: can be blocked by pretreatment of VHL-1, MLN4924, MG132, and AZD5363; also recorded: can be rescued by pretreatment of the cells with VHL-1, MLN4924, MG132 and AZD5363	effective in suppressing both AKT protein level and AKT activity	time-dependently reduces	significantly reduced	significantly reduced	24	time-dependently reduce	more effective in inhibiting cancer cell proliferation than AZD5363; also recorded: better colony formation inhibition than AZD5363	more effective in inhibiting cancer cell proliferation than AZD5363; also recorded: better colony formation inhibition than AZD5363	more effective in inhibiting cancer cell proliferation than AZD5363; also recorded: better colony formation inhibition than AZD5363	significantly reduced	reduced AKT protein levels and inhibited downstream signaling; also recorded: significantly reduced the AKT protein levels and AKT downstream signaling	no abnormal clinical observations noted	Bioavailable	more effective than AZD5363; also recorded: better cell proliferation inhibition activity than AZD5363

From US11472799B2, “Serine threonine kinase (AKT) degradation / disruption compounds and methods of use” (Icahn School of Medicine at Mount Sinai, priority 2018, dated 2022)
